Laboratory results from a melting point compilation (Tetko et al.; mined from patent text by program, amines drawn as free bases though some values may be those of a salt).

Row | Compound | melting point [°C]
1 | CC(=O)OC(C(Oc1ccccc1)n1ccnc1)C(C)(C)C (stereo not given) | 114 to 121
2 | CN(Cc1ccc(COOC(=O)NC(Cc2ccccc2)C(=O)O)cc1)c1ccccc1 (stereo not given) | 69.6 to 70.1
3 | Cc1cc(C)c2c(c1C)C(C(=O)O)=C(Cl)C2=O | 194
4 | CCn1cc(C(=O)O)c(=O)c2cc(F)c(N3CCC(CNC)C3)nc21 (stereo not given) | 251 to 253
5 | CC1(C)OCC2OC2CO1 (stereo not given) | 70 to 74
6 | O=C(NCCNCCNC(=O)OCc1ccccc1)OCc1ccccc1 | 73 to 75
7 | CCSCCn1c(=N)sc2cc(C(F)(F)C(F)(F)F)ccc21 | < 50
8 | O=c1n(CCCN2CCC(c3c[nH]c4ccccc34)CC2)nc2ccccn12 | 112
9 | O=C(NC1=NCCC1)Nc1ccc(Br)cc1 | 221 to 224
10 | COc1ccc(N2C(=O)[C@@H](CCCc3ccccc3)[C@@H]2c2ccc(N3CCN(Cc4ccccc4)CC3)cc2)cc1 (relative stereo) | 139 to 140
11 | CC1(C)CC(O)CC(C)(C)N1CC(O)CN1C(C)(C)CC(O)CC1(C)C | 186 to 190
12 | CC12CCC(C1)C1(C)Oc3ccc(C(=O)c4ccc(C(=O)O)cc4)cc3C21C (stereo not given) | 262 to 264
13 | CN1CCNC(c2ccccc2)c2cc([N+](=O)[O-])ccc21 (stereo not given) | 96 to 99
14 | Cc1c(CNCC(C)(C)O)n(C)c2c(C)c(NC(=O)c3ccc(OC[C@@H]4CCCO4)cc3F)ccc12 | 131 to 132
15 | Cc1ccccc1NC(=O)Nc1ccc(C(=O)N2CCCCc3ccccc32)cc1 | 182
16 | C#Cc1ccc2c(c1)CCC2=O | 157
17 | O=Cc1ccccc1SSc1ccccc1C=O | 145
18 | CCCCN(CCCC)C(=O)/C=C/c1ccc(Cn2c(-c3ccc(F)cc3)c(C)c3cc(O)ccc32)cc1 | 180
19 | CC(=O)OC12Oc3cc(C(C)C)ccc3C1(OC(C)=O)C(=O)c1ccccc12 (stereo not given) | 138 to 140
20 | CN1N=C2C(=Cc3ccccc3)CN(C(=O)CCl)CC2C1c1ccccc1 (stereo not given) | 88 to 90
21 | Fc1ccc(C2C=C(C(F)(F)F)NC3=C2SCC=C3)cc1Br (stereo not given) | 195 to 198
22 | O=C(O)CCN1C(=O)c2cccc([N+](=O)[O-])c2C1=O | 146 to 148

Row | Compound | melting point [°C]
23 | CCOCCCc1ccc(-c2ccc3c(c2)C=C(C(=O)Nc2ccc(CN(C)C4CCOCC4)cc2)CCS3(=O)=O)cc1 | 217 to 219
24 | Cc1c(CNCC2CCOCC2)n(C)c2c(F)c(NC(=O)c3ccc(OC[C@@H]4CCCO4)cc3)ccc12 | 132 to 134
25 | Cc1ccccc1N1CCN(C(=O)c2ccc3n2Cc2ccccc2N(C(=O)c2ccc(C4CCCCC4)cc2)C3)CC1 | 141 to 143
26 | CNC(=O)Nc1scc(C(C)C)c1C#N | 179 to 181
27 | O=C(Oc1ccccc1)N1CC[C@@H](c2ccc(F)cc2)[C@H](CO)C1 (relative stereo) | 129 to 131
28 | CCCCN(CCCC)S(=O)(=O)NC(=O)Nc1c(C(C)C)cccc1C(C)C | 98 to 101
29 | O=C(N[C@@H]1CCNC[C@H]1O)c1ccccc1 (relative stereo) | 210
30 | CCOC(=O)/C=C/C(=O)N1C[C@H](NC(=O)OCc2ccccc2)C1=O | 68
31 | O=C(O)c1cccc(CN2CCN(c3ccc(NC(=O)c4ccccc4-c4ccc(C(F)(F)F)cc4)cc3)CC2)c1 | 225 to 227
32 | CC(C)N=C(NC(C)C)ON=C1CCCCC1 | 45 to 48
33 | O=C(NCc1ccn(-c2cc3nc(C(=O)O)c(=O)[nH]c3cc2C(F)(F)F)c1)Nc1ccc(F)cc1 | 168 to 170
34 | CCOC(=O)[C@@H]1CCC(=O)N1C(=O)OC(C)(C)C | 48 to 49
35 | O=C(CCC(CCC(=O)OCc1ccccc1)(CCC(=O)OCc1ccccc1)[N+](=O)[O-])OCc1ccccc1 | 95 to 96
36 | O=C(NC1C2CC3CC(C2)CC1C3)N1CCC2(C=Cc3ccccc32)CC1 (stereo not given) | 189 to 191
37 | CCC1SCCCN1C(=S)Nc1cccc(Br)c1 (stereo not given) | 77 to 79
38 | CCOc1ncc(S(=O)(=O)N2CCN(CC)CC2)cc1C(=O)Nc1c(C(N)=O)nn(CCOC)c1CC | 156
39 | O=C1CCC(c2ccc(NC(=O)CCNCCc3ccccc3)cc2)=NN1 | 130 to 132
40 | CC(C)(C)N(Cc1ccccc1)CC(O)c1cc(OCc2ccccc2)cc(OCc2ccccc2)c1 (stereo not given) | 78 to 79
41 | CC1CCCN1C1CCN(c2ccc(C(=O)NC3CCOCC3)cc2)C1 (stereo not given) | 180
42 | COC(=O)c1cc(N)c(NS(C)(=O)=O)c(CO)c1 | 150 to 155
43 | CC(=O)N1CCN=C1Nc1cc(C)nn1C(C)C | 145 to 147
44 | NC(=O)c1cc2cc(C(O)(C(F)(F)F)C(F)(F)F)ccc2[nH]1 | 262 to 263

The next lines start with the values.

Row | melting point [°C] | Compound
45 | 100 to 101 | COc1cccc2cc(C(=O)OCC(C)C)[nH]c12
46 | 175 to 176 | CCOc1cc(N(CC)CC)ccc1C(=O)c1nc2ccccc2nc1C(=O)O
47 | 213 to 214 | O=C(Cc1ccncc1)NC(Cc1c[nH]c2ccccc12)C(O)CCc1cc(C(F)(F)F)cc(C(F)(F)F)c1 (stereo not given)
48 | 159 to 160 | Clc1ccnc2[nH]c(CCc3ccccc3)cc12
49 | 145 to 146 | Cc1cccc(C(=O)NC(NC(=NC#N)Nc2ccc(Cl)nc2)C(C)(Cl)Cl)c1 (stereo not given)
50 | 213 to 215 | N#CC1=CCC23OCOC2=C1c1c(C#N)cccc1OCO3 (stereo not given)
51 | 154 | CC(C)NC(=O)c1nc(-c2ccccc2)c(-c2ccc(=O)n(C)n2)s1
52 | 100 | Cc1cccc(C2CCCCS2=O)n1 (stereo not given)
53 | 143 to 148 | CC(C)CC(C)(C(=O)NC1CCCCCCCCCCNC1=O)c1cccc(Cl)c1S (stereo not given)
54 | 211 to 213 | COc1cc2c(Nc3cccc(Br)c3)c(C#N)cnc2c(OC)c1OC
55 | 247 to 249 | Cc1nc(-c2ccc(Cl)cc2)n(-c2ccc(S(N)(=O)=O)cc2)n1
56 | 139 to 141 | CCCc1ccnc(C(N)=O)c1N
57 | 160 to 161 | COC(=O)CCc1ccc(Sc2ccccc2C(=O)O)c([N+](=O)[O-])c1
58 | 168 to 169 | CCOc1c(OC)cccc1-c1nc2ccc(C(=O)O)cc2c(=O)[nH]1
59 | 132 to 134 | CCCCc1nc2c(N)nc3cccnc3c2n1CCCC(C)=NOC
60 | 259 to 260 | Cc1ccc2nc(NC(=O)c3ccc(C(C)(C)C)cc3)cn2c1
61 | 166 to 167 | C=CCOc1ccc2c(c1C=NO)OCO2
62 | 89 to 90 | CCCC(OCCc1ccc(-c2ccc(Cl)cc2)cc1)C(=O)O (stereo not given)
63 | 61 to 64 | Cc1nc(OCC(F)(F)F)c([N+](=O)[O-])c(N2CCC(c3ccc(F)cc3)CC2)n1

Row | melting point [°C] | Compound
64 | 116 to 117 | O=Cc1ccc(/C=C/c2ccncc2)cc1
65 | 163 to 165 | COc1cc2c(cc1OCc1ccccc1)CCCC(C(=O)O)=C2
66 | 197 to 199 | O=C(O)c1cccnc1Nc1cccc(Cl)c1
67 | 135 to 140 | Cc1[nH]cnc1CC1CCc2[nH]c3c(F)cccc3c2C1=O (stereo not given)
68 | 111 to 113 | CCOC(=O)c1cnn2c1nc(N1CCN(C)CC1)c1cnc3c(cnn3CC)c12
69 | 100 to 102 | CCC(OC)(c1ccc(OCc2ccc3ccccc3n2)c(OC)c1)c1nccs1 (stereo not given)
70 | 95 to 113 | CCOC(=O)c1c(N2CCN(C(=O)c3cccs3)CC2)c2sccc2n(Cc2cccc(F)c2)c1=O
71 | 144 to 145 | Oc1cccc(-c2noc3cc(F)ccc23)c1
72 | 168 to 170 | COc1cccc(CNC(=O)c2nc3ccc(SC)cc3c(=O)[nH]2)c1
73 | 216 to 218 | Nc1nc(COc2cccc(Cl)c2Cl)nc2nccnc12
74 | 122 to 124 | CC1(O)CC(=O)OC(C=Cc2cccc(OCc3ccccc3)c2)C1 (stereo not given)
75 | > 300 | Nc1cc(Cl)cc(Nc2ncnc3[nH]cc(C(=O)c4ccccc4)c23)c1
76 | 251 to 252 | Nc1ccc(-c2n[nH]c(-c3ccncc3)n2)cc1
77 | 140 | O=C(O)/C=C/c1cncc(OCc2ccccc2)c1
78 | 228 to 230 | COC(=O)c1nc2ccc(Cl)cc2c(O)c1C(=O)OC
79 | 154 to 155 | CCc1nc(/C=C/c2cn(-c3ccccc3)nc2OCc2ccc(OCc3nc(-c4cccc(CC(=O)O)c4)oc3C)c(OC)c2)cs1
80 | 78 to 80 | CCC(CC)Nc1cc(C)nc2c1ncn2-c1c(C)cc(C)cc1C
81 | 182 | CN(C)C(=O)COc1ccc2ccc(N)nc2n1
82 | 190 to 191 | O=C(CC(NC(=O)COCc1ccccc1)c1ccccc1)Nc1n[nH]c(=S)s1 (stereo not given)

Row | melting point [°C] | Compound
83 | 95 to 95.5 | CON(C)C(=O)Nc1ccc(OCCc2ccc(C)cc2C)cc1
84 | 144 to 145 | CC(C)n1nc(-c2sc(NC(=O)CNCc3ccccc3)nc2-c2ccccc2)ccc1=O
85 | 146 to 147 | CCCNC(=O)CCn1ccc(=O)c(OCc2ccccc2)c1C
86 | 178 to 180 | O=[N+]([O-])c1cccnc1NCCc1c[nH]cn1
87 | 114 | OCCC(O)OCn1ccc2c(Cl)ncnc21 (stereo not given)
88 | 158 to 159 | CC(C)C1Sc2c(Cl)cccc2NC1=O (stereo not given)
89 | 155 to 157 | CCc1c2c(c(CC)c3ccc(OC)cc13)-c1ccc(OC)cc1C2
90 | 142 | O=C1c2cccc(NC(=S)Nc3ccccn3)c2C2CC3(CCN12)SCCS3 (stereo not given)
91 | 254 to 256 | O=c1c2cc(C=NO)ccc2oc2ncccc12
92 | 213 to 214 | O=C(O)C(=O)c1ccc(OCCOc2ccc3cc4ccccc4cc3c2)cc1
93 | 102 to 105 | COc1ccc(C(=O)CCCCCN2CCC(CNC(=O)c3cc(Cl)c(N)cc3OC)CC2)cc1OC
94 | 146 to 148 | COC(=O)c1ccc2cc(OC)c(OC)cc2c1-c1ccnc(Br)c1
95 | 110 to 111 | CCCOc1ccccc1-c1nc2ncccc2c(=O)[nH]1
96 | 138 to 140 | Cc1c(C)n(CC=CC(F)(F)F)c2c(OCc3ccccc3)nncc12
97 | 114 to 115 | FC(F)(F)c1cc(CO[C@@H]2CCCN(Cc3nnn[nH]3)[C@@H]2c2ccccc2)cc(C(F)(F)F)c1 (relative stereo)
98 | 90 to 92 | C=CCNC(=O)N1CC(Oc2cccc(Br)c2)C1
99 | 259 to 260 | CCCOc1ccccc1C1=NC(=O)C2=NC(c3ccccc3)=NC2=N1
100 | 132 to 134 | CCN(Cc1cc(Cl)ccc1OCC(C)C)c1ccc(C(=O)O)nn1
